Source: article PMC11240139, “Exploring the antitumor potential of novel quinoline derivatives via tubulin polymerization inhibition in breast cancer; design, synthesis and molecular docking” (RSC Advances, 2024)
Entries after “also recorded” stand apart in the source; their conditions may differ.

Experiments:
[1] = system: MDA-MB-231 cells; experiment: Cell cycle analysis by flow cytometry (PI); type: cell-based; details: MDA-MB-231, IC50 dose, 24 h; control 10.42%
Method: Propidium Iodide Flow Cytometry Kit for Cell Cycle Analysis (Abcam) was used according to manufacturer's instructions. Briefly, MDA-MB 231 cells (2 × 10^5 cells) were seeded in 6-well plates and cultured for 24 h. […] Cells were collected, washed with PBS and centrifuged. Subsequently, the cells were re-suspended and fixed in 66% ethanol on ice for at least 2 h. The cells were stained with a working solution containing propidium iodide (PI) in the dark at 37 °C for 30 min. DNA content of the cells were measured by flow cytometry using FACSCalibur (BD Biosciences, Mountain View, CA). The data were analyzed using the CellQuest software (BD Biosciences).[21]

[2] = system: MDA-MB-231 cells; experiment: Cell apoptosis analysis (annexin V-FITC/PI); type: cell-based; details: MDA-MB-231, IC50 dose, 24 h
Method: Annexin-V-FITC Apoptosis Detection Kit (Biovision, USA) was used to determine apoptotic cells according to manufacturer's instructions. Briefly, MDA-MB 231 cells (2 × 10^5 cells) were seeded in 6-well plates and cultured for 24 h. […] Cells were collected, washed with PBS and centrifuged. The cells were re-suspended in 500 μL of 1× binding buffer. 5 μL of annexin V-FITC and 5 μL of propidium iodide (PI […]) were added and the cells were incubated in the dark at room temperature for 5 min. The fluorescence of the stained cells was analyzed by flow cytometry using FACSCalibur (BD Biosciences, Mountain View, CA). The data were analyzed using the CellQuest software (BD Biosciences).[53,54]

[3] = target: T1, tubulin (Sus scrofa, UniProt P02550+P02554); experiment: Tubulin polymerization inhibition assay; type: biochemical
T1 construct: purchased Cytoskeleton, USA
Method: Tubulin polymerization inhibition assay was performed using Tubulin Polymerization Assay Kit (Cytoskeleton, USA). 2 mg mL^−1 tubulin was dissolved in 80 mM PIPES pH 6.9, 2.0 mM MgCl2, 0.5 mM EGTA, 1.0 mM GTP and 15% glycerol. A 96-well plate was warmed to 37 °C for 10 minutes. Serial dilutions of the test compounds were prepared. The assay components were mixed. Polymerization was monitored using a plate reader at 360 nm and emission at 420 nm at 37 °C every 1 min intervals for 60 min. A dose–response curve was generated and the IC50 for tubulin polymerization inhibition was calculated.

[4] = system: β-tubulin mRNA in MDA-MB-231 cells; experiment: Tubulin expression assay (real-time PCR); type: cell-based; details: MDA-MB-231, IC50 dose, 48 h, normalized to β-actin
Method: The cells were seeded in a six-well plate at a concentration of 3 × 10^5 cells per well. […] The cells were washed, collected and centrifuged at 2500 rpm for 15 min at 4 °C. The total RNA isolation kit (RNeasy extraction kit – QIAGEN) was used to isolate RNA according to the manufacturer's instructions.
Gene expression of β-tubulin was determined using iScript One-Step RT-PCR kit with SYBR Green (BIORAD) according to the manufacturer protocol. Primers sequences used for qPCR are illustrated in (Table 5). The genes expression was normalized to β-actin as the housekeeping gene. The protocol used was cDNA synthesis for 10 min at 50 °C, iScript Reverse transcriptase inactivation for 5 min at 95 °C and PCR cycling and detection (30 to 45 cycles): 10 s at 95 °C and 30 s at 55 °C to 60 °C.

T1 sequence (P02554 whole entry): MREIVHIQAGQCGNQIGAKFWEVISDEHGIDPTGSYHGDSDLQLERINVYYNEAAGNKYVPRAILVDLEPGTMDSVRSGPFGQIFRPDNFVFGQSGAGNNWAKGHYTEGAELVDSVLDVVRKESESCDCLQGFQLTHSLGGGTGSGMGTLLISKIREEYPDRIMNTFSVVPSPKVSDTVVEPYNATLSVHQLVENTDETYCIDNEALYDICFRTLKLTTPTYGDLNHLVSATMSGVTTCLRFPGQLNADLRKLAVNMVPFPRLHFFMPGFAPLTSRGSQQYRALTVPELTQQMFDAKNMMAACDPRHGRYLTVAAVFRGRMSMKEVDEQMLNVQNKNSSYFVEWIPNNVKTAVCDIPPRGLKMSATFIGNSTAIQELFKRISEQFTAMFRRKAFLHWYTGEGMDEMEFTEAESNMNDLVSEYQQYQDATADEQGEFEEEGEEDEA
T1 sequence (P02550 whole entry): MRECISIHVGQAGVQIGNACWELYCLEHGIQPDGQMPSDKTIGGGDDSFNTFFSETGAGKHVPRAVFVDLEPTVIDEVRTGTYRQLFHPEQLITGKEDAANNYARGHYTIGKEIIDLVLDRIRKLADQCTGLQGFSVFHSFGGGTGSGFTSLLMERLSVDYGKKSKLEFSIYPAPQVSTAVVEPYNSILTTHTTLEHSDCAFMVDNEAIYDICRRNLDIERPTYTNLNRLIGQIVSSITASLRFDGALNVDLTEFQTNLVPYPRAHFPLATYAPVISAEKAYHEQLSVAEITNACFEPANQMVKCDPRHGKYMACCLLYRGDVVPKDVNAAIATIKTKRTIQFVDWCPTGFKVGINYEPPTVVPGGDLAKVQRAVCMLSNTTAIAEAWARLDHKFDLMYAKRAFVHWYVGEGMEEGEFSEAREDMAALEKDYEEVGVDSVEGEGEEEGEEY

SMILES: CCc1cccc2cc(-c3cc(-c4cc(OC)c(OC)c(OC)c4)[nH]c(=O)c3C#N)c(Cl)nc12 [Compound 4c, 4-(2-Chloro-8-ethylquinolin-3-yl)-2-oxo-6-(3,4,5-trimethoxyphenyl)-1,2-dihydropyridine-3-carbonitrile]
- cells population at G2 and M phases [1]: 22.84%
- Early Apoptosis (%) [2]: 7.44 ± 1.59%
- Late Apoptosis (%) [2]: 17.1 ± 1.9%
- Necrosis (%) [2]: 4.61 + 2%
- IC50 [3]: 17 ± 0.3 µM
- β-tubulin mRNA levels (relative gene expression) vs non-treated cells [4]: notably reduced; also recorded: significantly suppressed; also recorded: markedly reduced
